Patent US10322108B2, “N-benzoate group substituted benzopyrroline-2-one derivative and use thereof” (BEIJING HANMI PHARMACEUTICAL CO., LTD., priority 2015, dated 2019)
Where two headings read alike, the source gives them in different places.

Biological target: RORγ-LBD (Homo sapiens (Human), UniProt P51449)
Test: LanthaScreen TR-FRET screening of RORγ-LBD / co-activator (Fluorescein-D22) interaction
[1] = read-out: IC50 Values, TR-FRET, 2 nM RORγ-LBD, 150 nM Fluorescein-D22 co-activator

Chain of RORγ-LBD (P51449 269-508): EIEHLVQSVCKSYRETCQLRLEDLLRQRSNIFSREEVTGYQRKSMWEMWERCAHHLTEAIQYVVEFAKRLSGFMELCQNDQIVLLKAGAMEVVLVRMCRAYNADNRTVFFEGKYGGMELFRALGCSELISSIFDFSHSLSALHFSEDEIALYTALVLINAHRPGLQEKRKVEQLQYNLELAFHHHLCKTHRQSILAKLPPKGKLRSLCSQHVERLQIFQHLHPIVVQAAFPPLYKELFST

Structure (SMILES) | IC50 | IC50 [1]
Cc1cccc2c1/C(=C\c1c(Cl)cccc1C1CC1)C(=O)N2c1ccc(C(=O)O)cc1 [Example 2B, (trans)-4-(3-(2-chloro-6-cyclopropyl-benzylidene)-4-methylindolin-2-on-1-yl)-benzoic acid] | 100 to 1000 nM | 
Cc1cccc2c1/C(=C/c1c(Cl)cccc1Cl)C(=O)N2c1ccc(C(=O)O)cc1 [Example 5, (trans)-4-(3-(2,6-dichlorobenzylidene)-4-methylindolin-2-on-1-yl)-benzoic acid] |  | < 100 nM
Cc1cccc2c1/C(=C/c1c(Cl)cccc1C(F)(F)F)C(=O)N2c1ccc(C(=O)O)c(O)c1 [Example 6, (trans)-4-(3-(2-chloro-6-(trifluoromethyl)-benzylidene)-4-methylindolin-2-on-1-yl)-2-hydroxybenzoic acid] |  | < 100 nM
Cc1cccc2c1/C(=C/c1c(Cl)cccc1Br)C(=O)N2c1ccc(C(=O)O)c(O)c1 [Example 7, (trans)-4-(3-(2-chloro-6-bromo-benzylidene)-4-methylindolin-2-on-1-yl)-2-hydroxybenzolic acid] |  | < 100 nM
COc1cccc2c1/C(=C/c1c(Cl)cccc1C1CC1)C(=O)N2c1ccc(C(=O)O)c(O)c1 [Example 8] |  | < 100 nM
Cc1cccc2c1/C(=C/c1c(F)cccc1Cl)C(=O)N2c1ccc(C(=O)O)c(O)c1 [Example 9] |  | < 100 nM
COc1cccc2c1/C(=C/c1c(Cl)cccc1Cl)C(=O)N2c1ccc(C(=O)O)c(O)c1 [Example 11, (trans)-4-(3-(2,6-dichloro-benzylidene)-4-methoxyindolin-2-on-1-yl)-2-hydroxybenzolic acid] | 100 to 1000 nM | 
O=C(O)c1ccc(N2C(=O)/C(=C\c3c(Cl)cccc3C3CC3)c3c(C4CC4)cccc32)cc1O [Example 12, (trans)-4-(3-(2-chloro-6-cyclopropyl-benzylidene)-4-cyclopropylindolin-2-on-1-yl)-2-hydroxybenzolic acid] |  | < 100 nM
O=C(O)c1ccc(N2C(=O)/C(=C\c3c(Cl)cccc3C3CC3)c3c(-c4ccccc4)cccc32)cc1 [Example 13] | 100 to 1000 nM | 
O=C(O)c1ccc(N2C(=O)/C(=C\c3c(Cl)cccc3C3CC3)c3c(Cl)cccc32)cc1O [Example 14, 4-(3-(2-chloro-6-cyclopropyl-benzylidene)-4-chloro-indolin-2-on-1-yl)-2-hydroxybenzolic acid] | 100 to 1000 nM | 
O=C(O)c1ccc(N2C(=O)/C(=C\c3c(Cl)cccc3C3CC3)c3c(F)cccc32)cc1 [Example 16A, (trans)-4-(3-(2-chloro-6-cyclopropyl-benzylidene)-4-fluoro-indolin-2-on-1-yl)-benzoic acid] |  | < 100 nM
O=C(O)c1ccc(N2C(=O)/C(=C\c3c(F)cccc3Cl)c3c(F)cccc32)cc1 [Example 17A, (trans)-4-(3-(2-chloro-6-fluoro-benzylidene)-4-fluoro-indolin-2-on-1-yl)-benzoic acid] | 100 to 1000 nM | 
O=C(O)c1ccc(N2C(=O)/C(=C/c3c(F)cccc3Cl)c3c(F)cccc32)cc1 [Example 17B, (cis)-4-(3-(2-chloro-6-fluoro-benzylidene)-4-fluoro-indolin-2-on-1-yl)-benzoic acid] | 100 to 1000 nM | 
O=C(O)c1ccc(N2C(=O)/C(=C\c3c(F)cccc3F)c3c(F)cccc32)cc1 [Example 18A, (trans)-4-(3-(2,6-difluoro-benzylidene)-4-fluoro-indolin-2-on-1-yl)-benzoic acid] | 1000 to 10000 nM | 
O=C(O)c1ccc(N2C(=O)/C(=C/c3c(F)cccc3F)c3c(F)cccc32)cc1 [Example 18B, (cis)-4-(3-(2,6-difluoro-benzylidene)-4-fluoro-indolin-2-on-1-yl)-benzoic acid] | 1000 to 10000 nM | 
O=C(O)c1ccc(N2C(=O)/C(=C\c3c(Cl)cccc3C(F)(F)F)c3c(F)cccc32)cc1 [Example 19A, (trans)-4-(3-(2-chloro-6-trifluoromethyl-benzylidene)-4-fluoro-indolin-2-on-1-yl)-benzoic acid] |  | < 100 nM
O=C(O)c1ccc(N2C(=O)/C(=C/c3c(Cl)cccc3C(F)(F)F)c3c(F)cccc32)cc1 [Example 19B, (cis)-4-(3-(2-chloro-6-trifluoromethyl-benzylidene)-4-fluoro-indolin-2-on-1-yl)-benzoic acid] |  | < 100 nM
CCCc1cccc(Cl)c1/C=C1\C(=O)N(c2ccc(C(=O)O)cc2)c2cccc(F)c21 [Example 20A, (trans)-4-(3-(2-chloro-6-n-propyl-benzylidene)-4-fluoro-indolin-2-on-1-yl)-benzoic acid] | 100 to 1000 nM | 

Structure (SMILES) | IC50 | IC50 [1]
CCCc1cccc(Cl)c1/C=C1/C(=O)N(c2ccc(C(=O)O)cc2)c2cccc(F)c21 [Example 20B, (cis)-4-(3-(2-chloro-6-n-propyl-benzylidene)-4-fluoro-indolin-2-on-1-yl)-benzoic acid] | 100 to 1000 nM | 
O=C(O)c1ccc(N2C(=O)/C(=C\c3c(Cl)cccc3C3CC3)c3c(F)cccc32)cc1O [Example 21A, (trans)-4-(3-(2-chloro-6-cyclopropyl-benzylidene)-4-fluoro-indolin-2-on-1-yl)-2-hydroxy-benzoic acid] |  | < 100 nM
O=C(O)c1ccc(N2C(=O)/C(=C/c3c(Cl)cccc3C3CC3)c3c(F)cccc32)cc1O [Example 21B, (cis)-4-(3-(2-chloro-6-cyclopropyl-benzylidene)-4-fluoro-indolin-2-on-1-yl)-2-hydroxy-benzoic acid] | 100 to 1000 nM | 
O=C(O)c1ccc(N2C(=O)/C(=C\c3c(Cl)cccc3Cl)c3c(F)cccc32)cc1O [Example 22A, (trans)-4-(3-(2,6-dichloro-benzylidene)-4-fluoro-indolin-2-on-1-yl)-2-hydroxy-benzoic acid] |  | < 100 nM
O=C(O)c1ccc(N2C(=O)/C(=C/c3c(Cl)cccc3Cl)c3c(F)cccc32)cc1O [Example 22B, (cis)-4-(3-(2,6-dichloro-benzylidene)-4-fluoro-indolin-2-on-1-yl)-2-hydroxy-benzoic acid] |  | < 100 nM
O=C(O)c1ccc(N2C(=O)/C(=C\c3c(Cl)cccc3Cl)c3c(Cl)cccc32)cc1 [Example 23, (trans)-4-(3-(2,6-dichloro-benzylidene)-4-chloro-indolin-2-on-1-yl)-benzoic acid] |  | < 100 nM
Cc1cccc2c1/C(=C/c1c(Cl)cccc1C1CC1)C(=O)N2c1ccc(C(=O)O)c(Cl)c1 [Example 24, (trans)-4-(3-(2-chloro-6-cyclopropyl-benzylidene)-4-methylindolin-2-on-1-yl)-2-chloro-benzoic acid] | 100 to 1000 nM | 
Cc1cccc2c1/C(=C/c1c(Cl)cccc1C1CC1)C(=O)N2c1ccc(C(=O)O)c(F)c1 [Example 25, (trans)-4-(3-(2-chloro-6-cyclopropyl-benzylidene)-4-methylindolin-2-on-1-yl)-2-fluoro-benzoic acid] | 100 to 1000 nM | 
Cc1cccc(Cl)c1/C=C1\C(=O)N(c2ccc(C(=O)O)cc2)c2cccc(C)c21 [Example 29, (trans)-4-(3-(2-chloro-6-methyl-benzylidene)-4-methylindolin-2-on-1-yl)-benzoic acid] | 100 to 1000 nM | 
COc1cccc2c1/C(=C/c1c(Cl)cccc1C1CC1)C(=O)N2c1ccc(C(=O)O)cc1 [Example 30] |  | < 100 nM
COc1cccc2c1/C(=C/c1c(Cl)cccc1Cl)C(=O)N2c1ccc(C(=O)O)cc1 [Example 31, (trans)-4-(3-(2,6-dichloro-benzylidene)-4-methoxyindolin-2-on-1-yl)-benzoic acid] | 1000 to 10000 nM | 
COc1cccc(Cl)c1/C=C1\C(=O)N(c2ccc(C(=O)O)cc2)c2cccc(C)c21 [Example 32, (trans)-4-(3-(2-chloro-6-methoxy-benzylidene)-4-methylindolin-2-on-1-yl)-benzoic acid] | 1000 to 10000 nM | 
Cc1cccc2c1/C(=C/c1c(Cl)cccc1C1CC1)C(=O)N2c1ccc(C(=O)O)c(N)c1 [Example 33] | 1000 to 10000 nM | 
Cc1cccc2c1/C(=C/c1c(Cl)cccc1C1CCC1)C(=O)N2c1ccc(C(=O)O)cc1 [Example 34] |  | < 100 nM
Cc1cccc2c1/C(=C/c1c(Cl)cccc1C1CCC1)C(=O)N2c1ccc(C(=O)O)c(O)c1 [Example 35] | 100 to 1000 nM | 
Cc1cccc2c1/C(=C/c1c(Cl)cccc1C(C)C)C(=O)N2c1ccc(C(=O)O)c(O)c1 [Example 36, (trans)-4-(3-(2-chloro-6-isopropyl-benzylidene)-4-methylindolin-2-on-1-yl)-2-hydroxybenzolic acid] |  | < 100 nM
CCc1cccc(Cl)c1/C=C1\C(=O)N(c2ccc(C(=O)O)c(O)c2)c2cccc(C)c21 [Example 37, (trans)-4-(3-(2-chloro-6-ethyl-benzylidene)-4-methylindolin-2-on-1-yl)-2-hydroxybenzolic acid] |  | < 100 nM
